In patent publication US20060069132A1, “Azolecarboxamide herbicides” (priority 2004, published 2006):

Legend:
[1] = tested on: barnyardgrass; assay: Test B flooded paddy test; type: in vivo, Echinochloa crus-galli; conditions: 1000 g ai/ha, scale 0 to 100 (0 no effect, 100 complete control)
Summary of the method: (§1)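 Each value is a visual 0–100 response rating taken against controls 13 to 15 days after treatment in the greenhouse. Plants received formulated chemical postemergence at the 1- to 4-leaf stage or, in flooded paddy, at the 2-leaf stage.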

[2] = tested on: pigweed; assay: Test B pre-/postemergence herbicide test; type: in vivo, Amaranthus retroflexus
Summary of the method: (§2)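 Response was scored visually 13 to 15 days after treatment against untreated greenhouse controls, 0 meaning no effect and 100 complete control. Formulations (solvent mixture plus surfactant) went onto soil after planting, onto foliage of 1- to 4-leaf plants, and onto 2-leaf plants in a flooded paddy set including rice and barnyardgrass.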

[3] = tested on: giant foxtail; assay: Test B pre-/postemergence herbicide test; type: in vivo, Setaria faberi
Summary of the method: as §2

[4] = tested on: barnyardgrass; assay: Test B pre-/postemergence herbicide test; type: in vivo, Echinochloa crus-galli
Summary of the method: (§3)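 Evaluation is visual, comparing treated with control plants on a scale where 0 means no effect and 100 means full control. Treatments were preemergence, or postemergence on seedlings 2–18 cm tall, and held 13–15 days in the greenhouse.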

[5] = tested on: ducksalad; assay: Test B flooded paddy test; type: in vivo, Heteranthera limosa; conditions: 1000 g ai/ha, scale 0 to 100 (0 no effect, 100 complete control)
Summary of the method: as §1

[6] = tested on: wheat; assay: Test B postemergence herbicide test; type: in vivo, Triticum aestivum; parameters: key to Wheat plant response rating: 0 = no effect, 100 = complete control
Summary of the method: as §1

[7] = tested on: morningglory; assay: Test B pre-/postemergence herbicide test; type: in vivo, Ipomoea coccinea
Summary of the method: as §3

[8] = tested on: Surinam grass; assay: Test B pre-/postemergence herbicide test; type: in vivo, Urochloa decumbens
Summary of the method: as §2

[9] = tested on: blackgrass; assay: Test B postemergence herbicide test; type: in vivo, Alopecurus myosuroides
Summary of the method: as §1

[10] = tested on: large crabgrass; assay: Test B pre-/postemergence herbicide test; type: in vivo, Digitaria sanguinalis
Summary of the method: as §2

[11] = tested on: cocklebur; assay: Test B pre-/postemergence herbicide test; type: in vivo, Xanthium strumarium
Summary of the method: as §3

[12] = tested on: corn; assay: Test B pre-/postemergence herbicide test; type: in vivo, Zea mays
Summary of the method: as §2

[13] = tested on: velvetleaf; assay: Test B pre-/postemergence herbicide test; type: in vivo, Abutilon theophrasti
Summary of the method: as §2

[14] = tested on: wild oat; assay: Test B postemergence herbicide test; type: in vivo, Avena fatua
Summary of the method: as §1

[15] = tested on: lambsquarters; assay: Test B pre-/postemergence herbicide test; type: in vivo, Chenopodium album
Summary of the method: as §2

[16] = tested on: small flower umbrella sedge; assay: Test B flooded paddy test; type: in vivo, Cyperus difformis; conditions: 1000 g ai/ha, scale 0 to 100 (0 no effect, 100 complete control)
Summary of the method: as §1

[17] = tested on: rice; assay: Test B flooded paddy test; type: in vivo, Oryza sativa; conditions: 1000 g ai/ha, scale 0 to 100 (0 no effect, 100 complete control)
Summary of the method: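 Postemergence plants were sprayed with formulated test chemicals at 2 to 18 cm height (1- to 4-leaf stage); paddy species were grown to the 2-leaf stage. After 13 to 15 days in a greenhouse, injury was rated visually against untreated controls on a 0–100 scale (0 = no effect, 100 = complete control).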

[18] = Postemergence, 250 g ai/ha, scale 0 (no effect) to 100 (complete control)
[19] = postemergence, 62 g ai/ha, scale 0 to 100
[20] = 500 g ai/ha, visual rating 0-100, 0 no effect, 100 complete control, preemergence
[21] = Postemergence, 500 g ai/ha, visual rating after 13 to 15 days, scale 0 (no effect) to 100 (complete control)
[22] = postemergence, 125 g ai/ha, visual rating, scale 0 (no effect) to 100 (complete control)
[23] = preemergence, 125 g ai/ha, 0 to 100 scale, 0 is no effect, 100 is complete control
[24] = postemergence, 500 g ai/ha, visual rating, scale 0 (no effect) to 100 (complete control)
[25] = 125 g ai/ha, 0 is no effect, 100 is complete control, preemergence
[26] = 125 g ai/ha, visual rating, scale 0 (no effect) to 100 (complete control), postemergence
[27] = Postemergence, 500 g ai/ha, scale 0 (no effect) to 100 (complete control)
[28] = postemergence, 500 g ai/ha, scale 0 to 100, 0 is no effect, 100 is complete control

SMILES: CCOC(=O)c1ccc(F)c(NC(=O)c2cc(CC(C)C)nn2CC)c1 [Compound 72]
- Barnyardgrass plant response rating ([1]; visual rating, 13 to 15 days): 0
- Pigweed plant response rating [2, 18]: 0
- Pigweed plant response rating [2, 19]: 0
- Foxtail, Giant plant response rating [3, 18]: 0
- Foxtail, Giant plant response rating [3, 19]: 0
- Barnyardgrass plant response rating [4, 18]: 0
- Barnyardgrass plant response rating [4, 19]: 0
- Ducksalad plant response rating ([5]; visual rating, 13 to 15 days): 0
- Wheat plant response rating ([6]; 250 g ai/ha, scale 0 to 100, 0 no effect, 100 complete control, preemergence): 0
- Wheat plant response rating [6, 18]: 10
- Wheat plant response rating [6, 19]: 10
- Morningglory plant response rating [7, 18]: 0
- Morningglory plant response rating [7, 19]: 0
- Surinam Grass plant response rating [8, 18]: 0
- Surinam Grass plant response rating [8, 19]: 0
- Blackgrass plant response rating [9, 18]: 50
- Blackgrass plant response rating [9, 19]: 40
- Crabgrass, Large plant response rating [10, 18]: 0
- Crabgrass, Large plant response rating [10, 19]: 0
- Cocklebur plant response rating [11, 18]: 0
- Cocklebur plant response rating [11, 19]: 0
- Corn plant response rating [12, 18]: 0
- Corn plant response rating [12, 19]: 0
- Velvetleaf plant response rating [13, 18]: 0
- Velvetleaf plant response rating [13, 19]: 0
- Oat, Wild plant response rating [14, 18]: 30
- Oat, Wild plant response rating [14, 19]: 20
- Lambsquarters plant response rating [15, 18]: 10
- Lambsquarters plant response rating [15, 19]: 0
- Sedge, Umbrella plant response rating ([16]; visual rating, 13 to 15 days): 0
- Rice plant response rating ([17]; visual rating, 13 to 15 days): 0

SMILES: COc1ccc(C(C)=NO)cc1NC(=O)c1cc(C(C)(C)C)nn1C [Compound 104]
- Barnyardgrass plant response rating ([1]; visual rating, 13 to 15 days): 0
- Plant response rating, Pigweed [2, 20]: 70
- Plant response rating, Pigweed [2, 21]: 10
- Pigweed plant response rating [2, 22]: 10
- Plant response rating, Pigweed [2, 23]: 60
- Plant response rating, Foxtail, Giant [3, 20]: 20
- Plant response rating, Foxtail, Giant [3, 21]: 0
- Foxtail, Giant plant response rating [3, 22]: 0
- Plant response rating, Foxtail, Giant [3, 23]: 0
- Plant response rating, Barnyardgrass [4, 20]: 80
- Plant response rating, Barnyardgrass [4, 21]: 0
- Barnyardgrass plant response rating [4, 22]: 0
- Plant response rating, Barnyardgrass [4, 23]: 0
- Ducksalad plant response rating ([5]; visual rating, 13 to 15 days): 60
- Plant response rating, Wheat [6, 21]: 0
- Wheat plant response rating [6, 22]: 0
- Plant response rating, Morningglory [7, 20]: 20
- Plant response rating, Morningglory [7, 21]: 0
- Morningglory plant response rating [7, 22]: 0
- Plant response rating, Morningglory [7, 23]: 0
- Plant response rating, Surinam Grass [8, 20]: 20
- Plant response rating, Surinam Grass [8, 21]: 10
- Surinam Grass plant response rating [8, 22]: 0
- Plant response rating, Surinam Grass [8, 23]: 0
- Plant response rating, Blackgrass [9, 21]: 0
- Blackgrass plant response rating [9, 22]: 0
- Plant response rating, Crabgrass, Large [10, 20]: 90
- Plant response rating, Crabgrass, Large [10, 21]: 0
- Crabgrass, Large plant response rating [10, 22]: 0
- Plant response rating, Crabgrass, Large [10, 23]: 80
- Plant response rating, Cocklebur [11, 20]: 0
- Plant response rating, Cocklebur [11, 21]: 0
- Cocklebur plant response rating [11, 22]: 0
- Plant response rating, Cocklebur [11, 23]: 0
- Plant response rating, Corn [12, 20]: 0
- Plant response rating, Corn [12, 21]: 0
- Corn plant response rating [12, 22]: 0
- Plant response rating, Corn [12, 23]: 0
- Plant response rating, Velvetleaf [13, 20]: 0
- Plant response rating, Velvetleaf [13, 21]: 0
- Velvetleaf plant response rating [13, 22]: 0
- Plant response rating, Velvetleaf [13, 23]: 0
- Plant response rating, Oat, Wild [14, 21]: 0
- Oat, Wild plant response rating [14, 22]: 0
- Plant response rating, Lambsquarters [15, 20]: 80
- Plant response rating, Lambsquarters [15, 21]: 20
- Lambsquarters plant response rating [15, 22]: 0
- Plant response rating, Lambsquarters [15, 23]: 60
- Sedge, Umbrella plant response rating ([16]; visual rating, 13 to 15 days): 70
- Rice plant response rating ([17]; visual rating, 13 to 15 days): 0

SMILES: C=CCn1nc(C(C)(C)C)cc1C(=O)Nc1cccc(C(C)=O)c1 [Compound 129]
- Barnyardgrass plant response rating ([1]; visual rating, 13 to 15 days): 30
- Plant response rating, Pigweed [2, 20]: 30
- Pigweed plant response rating [2, 24]: 10
- Pigweed plant response rating [2, 19]: 0
- Plant response rating, Foxtail, Giant [3, 20]: 20
- Foxtail, Giant plant response rating [3, 24]: 10
- Foxtail, Giant plant response rating [3, 19]: 10
- Plant response rating, Barnyardgrass [4, 20]: 60
- Barnyardgrass plant response rating [4, 24]: 0
- Barnyardgrass plant response rating [4, 19]: 0
- Ducksalad plant response rating ([5]; visual rating, 13 to 15 days): 70
- Wheat plant response rating [6, 24]: 0
- Wheat plant response rating [6, 19]: 0
- Plant response rating, Morningglory [7, 20]: 0
- Plant response rating, Surinam Grass [8, 20]: 10
- Surinam Grass plant response rating [8, 24]: 20
- Surinam Grass plant response rating [8, 19]: 0
- Blackgrass plant response rating [9, 24]: 0
- Blackgrass plant response rating [9, 19]: 0
- Plant response rating, Crabgrass, Large [10, 20]: 90
- Crabgrass, Large plant response rating [10, 24]: 10
- Crabgrass, Large plant response rating [10, 19]: 0
- Plant response rating, Cocklebur [11, 20]: 20
- Cocklebur plant response rating [11, 24]: 60
- Cocklebur plant response rating [11, 19]: 60
- Plant response rating, Corn [12, 20]: 0
- Plant response rating, Velvetleaf [13, 20]: 10
- Velvetleaf plant response rating [13, 24]: 20
- Velvetleaf plant response rating [13, 19]: 0
- Oat, Wild plant response rating [14, 24]: 0
- Oat, Wild plant response rating [14, 19]: 0
- Plant response rating, Lambsquarters [15, 20]: 20
- Lambsquarters plant response rating [15, 24]: 10
- Lambsquarters plant response rating [15, 19]: 0
- Sedge, Umbrella plant response rating ([16]; visual rating, 13 to 15 days): 80
- Rice plant response rating ([17]; visual rating, 13 to 15 days): 10

SMILES: C#CCNC(=O)c1cccc(NC(=O)c2nn(C(C)C)nc2CC)c1 [Compound 379]
- Barnyardgrass plant response rating [1]: 40
- Plant response rating (0 to 100 scale), Pigweed [2, 25]: 20
- Pigweed plant response rating [2, 26]: 20
- Pigweed plant response rating [2, 27]: 50
- Plant response rating (0 to 100 scale), Foxtail, Giant [3, 25]: 0
- Foxtail, Giant plant response rating [3, 26]: 10
- Foxtail, Giant plant response rating [3, 28]: 10
- Plant response rating (0 to 100 scale), Barnyardgrass [4, 25]: 0
- Barnyardgrass plant response rating [4, 26]: 0
- Barnyardgrass plant response rating [4, 28]: 0
- Ducksalad plant response rating [5]: 70
- Wheat plant response rating [6, 26]: 0
- Wheat plant response rating ([6]; 500 g ai/ha, scale 0 to 100, 0 no effect, 100 complete control, preemergence): 20
- Wheat plant response rating [6, 27]: 0
- Plant response rating (0 to 100 scale), Morningglory [7, 25]: 10
- Morningglory plant response rating [7, 26]: 20
- Morningglory plant response rating [7, 27]: 40
- Plant response rating (0 to 100 scale), Surinam Grass [8, 25]: 0
- Surinam Grass plant response rating [8, 26]: 10
- Surinam Grass plant response rating [8, 27]: 20
- Blackgrass plant response rating [9, 26]: 0
- Blackgrass plant response rating [9, 28]: 0
- Plant response rating (0 to 100 scale), Crabgrass, Large [10, 25]: 20
- Crabgrass, Large plant response rating [10, 26]: 10
- Crabgrass, Large plant response rating [10, 28]: 10
- Plant response rating (0 to 100 scale), Cocklebur [11, 25]: 0
- Cocklebur plant response rating [11, 26]: 0
- Cocklebur plant response rating [11, 28]: 10
- Plant response rating (0 to 100 scale), Corn [12, 25]: 0
- Corn plant response rating [12, 26]: 0
- Corn plant response rating [12, 28]: 0
- Plant response rating (0 to 100 scale), Velvetleaf [13, 25]: 10
- Velvetleaf plant response rating [13, 26]: 0
- Velvetleaf plant response rating [13, 27]: 10
- Oat, Wild plant response rating [14, 26]: 0
- Oat, Wild plant response rating [14, 27]: 0
- Plant response rating (0 to 100 scale), Lambsquarters [15, 25]: 0
- Lambsquarters plant response rating [15, 26]: 20
- Lambsquarters plant response rating [15, 27]: 50
- Sedge, Umbrella plant response rating [16]: 70
- Rice plant response rating [17]: 50
